Experimental data as given in PMC6892409, “Phenotypic proteomic profiling identifies a landscape of targets for circadian clock–modulating compounds” (Life Science Alliance, 2019).
Where two headings read alike, the source gives them in different places.

Tests used:
TNS1 = TNS1 (Homo sapiens, UniProt Q9HBL0); test: TPP in intact U2OS cells; format: binding; conditions: vs vehicle
DYNC1I2 = DYNC1I2 (Homo sapiens, UniProt Q13409); test: TPP in intact U2OS cells; format: binding; conditions: vs vehicle
RPL37 = RPL37 (Homo sapiens, UniProt P61927); test: TPP in intact U2OS cells; format: binding; conditions: vs vehicle
[1] = target: Rab GTPase-binding effector protein 1 (RABEP1) (Homo sapiens, UniProt Q15276); test: TPP in intact U2OS cells; conditions: vs vehicle
F-box protein 21 (FBX21) = F-box protein 21 (FBX21) (Homo sapiens, UniProt O94952); test: TPP in intact U2OS cells; format: binding; conditions: vs vehicle
PSMG4 = PSMG4 (Homo sapiens, UniProt Q5JS54); test: TPP in intact U2OS cells; format: binding; conditions: vs vehicle
NFU1 = NFU1 (Homo sapiens, UniProt Q9UMS0); test: TPP in intact U2OS cells; format: binding; conditions: vs vehicle
CYCS = CYCS (Homo sapiens, UniProt P99999); test: TPP in intact U2OS cells; format: binding; conditions: vs vehicle
ERK2/MAPK1 = target: T1, ERK2/MAPK1 (Homo sapiens, UniProt P28482); test: Radiometric HotSpot kinase assay; format: biochemical; conditions: 100 μM, n = 3; remaining activity vs DMSO; read-out: Enzyme activity (%) ERK2/MAPK1
T1 construct: purchased Reaction Biology
Description: (§1) In brief, specific kinase/substrate pairs were mixed in a buffer containing 20 mM Hepes (pH 7.5), 10 mM MgCl2, 1 mM EGTA, 0.02% Brij35, 0.02 mg/ml BSA, 0.1 mM Na3VO4, 2 mM DTT, and 1% DMSO. […] After a 20-min incubation, ATP (cat. no. A7699; Sigma-Aldrich) and [γ-^33P] ATP (cat. no. NEG602H001MC; PerkinElmer) were added at a final total concentration of […].

MST4/STK26 = target: T2, MST4/STK26 (Homo sapiens, UniProt Q9P289); test: Radiometric HotSpot kinase assay; format: biochemical; conditions: 100 μM, n = 3; remaining activity vs DMSO; read-out: Enzyme activity (%) MST4/STK26
T2 construct: purchased Reaction Biology
Description: as §1

ERK1/MAPK3 = target: T3, ERK1/MAPK3 (Homo sapiens, UniProt P27361); test: Radiometric HotSpot kinase assay; format: biochemical; conditions: 100 μM, n = 3; remaining activity vs DMSO; read-out: Enzyme activity (%) ERK1/MAPK3
T3 construct: purchased Reaction Biology
Description: as §1

CAMK2d = target: T4, CAMK2d (Homo sapiens, UniProt Q13557); test: Radiometric HotSpot kinase assay; format: biochemical; conditions: 100 μM, n = 3; remaining activity vs DMSO; read-out: Enzyme activity (%) CAMK2d
T4 construct: purchased Reaction Biology
Description: as §1

TNIK = target: T5, TNIK (Homo sapiens, UniProt Q9UKE5); test: Radiometric HotSpot kinase assay; format: biochemical
T5 construct: purchased Reaction Biology
Description: as §1

CDK7 = target: T6, CDK7 (Homo sapiens, UniProt P50613); test: Radiometric HotSpot kinase assay; format: biochemical; conditions: 100 μM, n = 3; remaining activity vs DMSO; read-out: Enzyme activity (%) CDK7
T6 construct: purchased Reaction Biology
Description: as §1

CK2a = target: T7, CK2a (Homo sapiens, UniProt P68400); test: Radiometric HotSpot kinase assay; format: biochemical; conditions: 100 μM, n = 3; remaining activity vs DMSO; read-out: Enzyme activity (%) CK2a
T7 construct: purchased Reaction Biology
Description: as §1

CK1d = target: T8, CK1d (Homo sapiens, UniProt P48730); test: Radiometric HotSpot kinase assay; format: biochemical; conditions: n = 3, remaining activity vs DMSO, read-out: Enzyme activity (%) CK1d
T8 construct: purchased Reaction Biology
Description: as §1

CDK2 = target: T9, CDK2 (Homo sapiens, UniProt P24941); test: Radiometric HotSpot kinase assay; format: biochemical; conditions: n = 3, remaining activity vs DMSO, read-out: Enzyme activity (%) CDK2
T9 construct: purchased Reaction Biology
Description: as §1

SARS2 = SARS2 (Homo sapiens, UniProt Q9NP81); test: TPP in intact U2OS cells; format: binding
Per2-dLuc U2OS cells = test: Circadian luminescence period assay, Per2-dLuc U2OS cells; format: cell-based, human; conditions: 7 μM, mean ± SEM, control 24.2 ± […]
Description: Per2-dLuc U2OS osteosarcoma and Bmal1-dLuc U2OS osteosarcoma reporter cell lines were gifts from Dr Andrew Liu, University of Memphis, USA ([Liu et al, 2008]). […] The cells were cultured at 37°C, 5% CO2 in a standard humidified incubator.

[2] = target: Cleavage stimulation factor subunit 2 tau variant (CSTF2T) (Homo sapiens, UniProt Q9H0L4); test: TPP in intact U2OS cells; format: binding; conditions: vs vehicle
Synechococcus elongatus = test: Luminescence rhythm period assay in cyanobacteria; conditions: 3, 8, 16 and 32 μM
Description: The D730nm was maintained between 0.27 and 0.45 by dilution with fresh medium.
Circadian period–altering compounds (dissolved in DMSO, final 0.5% DMSO) were then added in the air medium to reach the different desired concentrations. […] Images were generated from integrated photon counts over 25 min every 30 min using Metamorph software (Molecular Devices). […] Exported images were composed into image stacks and were quantified in a time series using a custom script in NIH ImageJ software, applying the “Multi Measure” plugin.

Rab GTPase-binding effector protein 1 (RABEP1), sequence (Q15276 whole entry): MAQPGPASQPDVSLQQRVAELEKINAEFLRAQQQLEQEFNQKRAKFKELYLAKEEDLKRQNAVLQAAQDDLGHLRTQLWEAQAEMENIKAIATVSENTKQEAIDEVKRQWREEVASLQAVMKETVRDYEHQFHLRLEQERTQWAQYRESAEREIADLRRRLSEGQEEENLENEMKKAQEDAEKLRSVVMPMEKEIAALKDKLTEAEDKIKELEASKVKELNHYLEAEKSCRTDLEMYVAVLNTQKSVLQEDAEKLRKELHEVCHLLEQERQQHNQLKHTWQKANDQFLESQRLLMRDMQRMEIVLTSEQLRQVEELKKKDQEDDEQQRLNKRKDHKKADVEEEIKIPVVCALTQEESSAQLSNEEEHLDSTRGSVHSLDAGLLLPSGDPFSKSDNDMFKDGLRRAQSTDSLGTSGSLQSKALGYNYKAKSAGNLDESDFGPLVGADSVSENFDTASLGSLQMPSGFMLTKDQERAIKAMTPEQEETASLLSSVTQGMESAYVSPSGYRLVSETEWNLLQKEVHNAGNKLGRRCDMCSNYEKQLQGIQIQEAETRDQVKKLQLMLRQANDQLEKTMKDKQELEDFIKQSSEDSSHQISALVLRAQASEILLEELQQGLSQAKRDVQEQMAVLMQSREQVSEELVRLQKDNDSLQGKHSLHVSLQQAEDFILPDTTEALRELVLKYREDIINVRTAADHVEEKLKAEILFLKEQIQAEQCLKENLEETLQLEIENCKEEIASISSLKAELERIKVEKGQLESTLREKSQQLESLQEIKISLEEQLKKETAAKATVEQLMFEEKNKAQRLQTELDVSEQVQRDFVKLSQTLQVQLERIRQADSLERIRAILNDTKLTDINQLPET
TNS1, sequence (Q9HBL0 whole entry): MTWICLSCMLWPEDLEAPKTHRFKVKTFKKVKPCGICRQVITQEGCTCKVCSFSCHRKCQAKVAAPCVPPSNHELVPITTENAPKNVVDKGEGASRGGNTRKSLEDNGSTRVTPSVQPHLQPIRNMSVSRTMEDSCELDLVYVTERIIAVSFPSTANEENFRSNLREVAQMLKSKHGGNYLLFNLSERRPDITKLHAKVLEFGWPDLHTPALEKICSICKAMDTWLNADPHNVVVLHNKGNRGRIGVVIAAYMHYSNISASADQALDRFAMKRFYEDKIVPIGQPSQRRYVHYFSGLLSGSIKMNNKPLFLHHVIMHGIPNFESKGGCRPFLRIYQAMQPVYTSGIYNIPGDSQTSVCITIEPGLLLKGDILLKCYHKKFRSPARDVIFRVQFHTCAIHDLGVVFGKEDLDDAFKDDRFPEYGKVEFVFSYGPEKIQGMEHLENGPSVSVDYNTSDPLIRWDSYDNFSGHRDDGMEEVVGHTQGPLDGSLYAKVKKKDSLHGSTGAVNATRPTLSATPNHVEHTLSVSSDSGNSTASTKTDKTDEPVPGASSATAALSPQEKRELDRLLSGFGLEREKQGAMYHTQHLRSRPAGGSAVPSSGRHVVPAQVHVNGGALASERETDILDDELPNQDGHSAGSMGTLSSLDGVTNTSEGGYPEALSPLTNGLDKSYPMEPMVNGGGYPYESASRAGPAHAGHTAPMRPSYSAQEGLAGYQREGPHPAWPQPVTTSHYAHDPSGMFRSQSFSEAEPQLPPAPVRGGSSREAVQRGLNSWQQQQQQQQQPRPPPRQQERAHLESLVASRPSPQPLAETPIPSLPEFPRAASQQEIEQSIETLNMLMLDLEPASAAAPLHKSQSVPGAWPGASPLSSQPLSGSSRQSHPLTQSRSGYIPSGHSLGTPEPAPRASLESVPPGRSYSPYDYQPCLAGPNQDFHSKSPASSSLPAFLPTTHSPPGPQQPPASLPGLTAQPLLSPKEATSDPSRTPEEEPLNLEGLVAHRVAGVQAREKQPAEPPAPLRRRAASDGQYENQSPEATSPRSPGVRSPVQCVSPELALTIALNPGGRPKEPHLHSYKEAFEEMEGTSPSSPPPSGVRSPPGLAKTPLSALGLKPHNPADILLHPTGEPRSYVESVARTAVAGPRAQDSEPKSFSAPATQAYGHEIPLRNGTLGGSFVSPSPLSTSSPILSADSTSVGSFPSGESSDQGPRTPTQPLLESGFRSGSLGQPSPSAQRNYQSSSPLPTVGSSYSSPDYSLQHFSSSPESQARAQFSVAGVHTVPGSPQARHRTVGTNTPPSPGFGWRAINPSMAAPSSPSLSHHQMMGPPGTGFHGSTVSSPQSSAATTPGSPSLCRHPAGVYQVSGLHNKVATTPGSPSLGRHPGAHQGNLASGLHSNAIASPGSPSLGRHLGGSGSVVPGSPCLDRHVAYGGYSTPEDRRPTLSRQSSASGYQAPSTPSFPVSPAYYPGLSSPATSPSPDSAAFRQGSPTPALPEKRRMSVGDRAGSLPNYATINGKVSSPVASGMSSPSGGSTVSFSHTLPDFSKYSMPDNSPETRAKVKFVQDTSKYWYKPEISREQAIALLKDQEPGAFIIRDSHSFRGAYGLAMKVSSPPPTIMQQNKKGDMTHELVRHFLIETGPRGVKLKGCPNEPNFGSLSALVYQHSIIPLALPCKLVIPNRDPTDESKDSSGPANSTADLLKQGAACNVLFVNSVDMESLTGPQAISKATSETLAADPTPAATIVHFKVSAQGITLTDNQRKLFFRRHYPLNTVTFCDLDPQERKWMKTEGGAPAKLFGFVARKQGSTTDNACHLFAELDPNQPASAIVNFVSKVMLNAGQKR
F-box protein 21 (FBX21), sequence (O94952 whole entry): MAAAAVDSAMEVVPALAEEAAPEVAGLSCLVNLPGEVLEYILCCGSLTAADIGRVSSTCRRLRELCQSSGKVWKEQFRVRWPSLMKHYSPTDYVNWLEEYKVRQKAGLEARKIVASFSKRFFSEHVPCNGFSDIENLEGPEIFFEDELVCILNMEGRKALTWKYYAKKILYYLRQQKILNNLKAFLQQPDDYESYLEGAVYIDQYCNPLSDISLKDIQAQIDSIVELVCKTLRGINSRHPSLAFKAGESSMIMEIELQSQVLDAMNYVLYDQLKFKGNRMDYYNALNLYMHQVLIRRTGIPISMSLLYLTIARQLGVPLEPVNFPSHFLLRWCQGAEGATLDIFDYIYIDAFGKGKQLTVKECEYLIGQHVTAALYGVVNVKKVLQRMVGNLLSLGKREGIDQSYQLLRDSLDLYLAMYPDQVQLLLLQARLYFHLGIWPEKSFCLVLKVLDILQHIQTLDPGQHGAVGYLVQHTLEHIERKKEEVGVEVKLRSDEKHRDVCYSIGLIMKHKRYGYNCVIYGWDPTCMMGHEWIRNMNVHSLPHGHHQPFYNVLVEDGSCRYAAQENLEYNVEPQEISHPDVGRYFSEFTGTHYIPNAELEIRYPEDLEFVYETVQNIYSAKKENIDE
NFU1, sequence (Q9UMS0 10-254): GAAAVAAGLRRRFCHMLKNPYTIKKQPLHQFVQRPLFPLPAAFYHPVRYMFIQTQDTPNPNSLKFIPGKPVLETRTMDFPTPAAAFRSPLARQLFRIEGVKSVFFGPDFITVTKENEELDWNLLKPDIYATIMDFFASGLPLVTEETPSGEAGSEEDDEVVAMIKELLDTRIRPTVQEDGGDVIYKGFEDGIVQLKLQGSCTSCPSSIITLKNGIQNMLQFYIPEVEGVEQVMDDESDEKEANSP
CYCS, sequence (P99999 whole entry): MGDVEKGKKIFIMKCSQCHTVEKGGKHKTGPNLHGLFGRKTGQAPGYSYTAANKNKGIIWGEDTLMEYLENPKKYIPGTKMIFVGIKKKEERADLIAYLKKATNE
SARS2, sequence (Q9NP81 35-518): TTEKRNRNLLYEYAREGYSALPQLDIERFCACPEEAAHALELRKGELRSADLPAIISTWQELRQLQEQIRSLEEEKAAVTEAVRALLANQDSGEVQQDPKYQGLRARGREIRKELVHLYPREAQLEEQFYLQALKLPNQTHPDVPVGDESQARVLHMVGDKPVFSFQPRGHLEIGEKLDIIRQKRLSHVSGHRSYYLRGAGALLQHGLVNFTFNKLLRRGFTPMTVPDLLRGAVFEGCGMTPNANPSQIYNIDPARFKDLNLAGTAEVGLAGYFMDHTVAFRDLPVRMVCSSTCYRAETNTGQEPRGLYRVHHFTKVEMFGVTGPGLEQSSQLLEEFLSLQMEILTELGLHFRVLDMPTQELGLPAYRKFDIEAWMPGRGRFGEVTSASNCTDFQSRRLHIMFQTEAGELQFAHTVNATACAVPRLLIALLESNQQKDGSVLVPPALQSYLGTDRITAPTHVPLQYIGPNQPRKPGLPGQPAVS
DYNC1I2, sequence (Q13409 whole entry): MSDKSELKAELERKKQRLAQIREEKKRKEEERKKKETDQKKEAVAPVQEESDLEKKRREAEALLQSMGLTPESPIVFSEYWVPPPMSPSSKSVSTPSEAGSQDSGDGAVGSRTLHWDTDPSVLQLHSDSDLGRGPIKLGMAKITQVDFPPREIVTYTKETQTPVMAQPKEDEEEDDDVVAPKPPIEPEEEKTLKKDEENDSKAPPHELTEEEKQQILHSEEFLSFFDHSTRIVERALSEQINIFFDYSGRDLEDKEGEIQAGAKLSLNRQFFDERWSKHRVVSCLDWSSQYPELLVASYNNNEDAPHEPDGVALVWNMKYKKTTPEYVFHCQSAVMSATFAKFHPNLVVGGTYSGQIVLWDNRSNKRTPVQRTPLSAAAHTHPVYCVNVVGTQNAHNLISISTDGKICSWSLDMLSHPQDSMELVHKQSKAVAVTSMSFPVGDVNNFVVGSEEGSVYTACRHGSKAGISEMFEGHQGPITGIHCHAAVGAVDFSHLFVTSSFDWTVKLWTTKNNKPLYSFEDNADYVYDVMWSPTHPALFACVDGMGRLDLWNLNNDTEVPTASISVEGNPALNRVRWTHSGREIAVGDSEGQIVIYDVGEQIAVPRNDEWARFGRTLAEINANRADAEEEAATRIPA
PSMG4, sequence (Q5JS54 whole entry): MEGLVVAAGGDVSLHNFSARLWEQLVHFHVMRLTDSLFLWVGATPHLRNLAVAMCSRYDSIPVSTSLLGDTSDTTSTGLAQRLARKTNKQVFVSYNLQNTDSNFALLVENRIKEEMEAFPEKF

For `Oc1c2ccccc2c2c3c(cccc13)N=N2` [SP600125], the ΔTm at 10 µM (TNS1; Rep1, read-out: + Tm shift TNS1, Rep1) was 1.1 °C, the ΔTm at 10 µM (TNS1; Rep2, read-out: + Tm shift TNS1, Rep2) was 1.6 °C and the ΔTm at 10 µM (DYNC1I2; Rep1, read-out: + Tm shift DYNC1I2, Rep1) was 2.5 °C. For the same compound, the ΔTm at 10 µM (DYNC1I2; Rep2, read-out: + Tm shift DYNC1I2, Rep2) was 0.8 °C, the ΔTm at 10 µM (RPL37; Rep1, read-out: + Tm shift RPL37, Rep1) was 2.9 °C and the ΔTm at 10 µM (RPL37; Rep2, read-out: + Tm shift RPL37, Rep2) was 2.1 °C. For the same compound, the ΔTm at 10 µM ([1]; Rep1, read-out: + Tm shift RABEP1, Rep1) was 3.5 °C, the ΔTm at 10 µM ([1]; Rep2, read-out: + Tm shift RABEP1, Rep2) was 4.4 °C and the ΔTm at 10 µM (F-box protein 21 (FBX21); Rep1, read-out: + Tm shift FBX21, Rep1) was 3.2 °C. It also gave a ΔTm at 10 µM (F-box protein 21 (FBX21); Rep2, read-out: + Tm shift FBX21, Rep2) of 2.3 °C, a ΔTm at 10 µM (PSMG4; Rep1, read-out: + Tm shift PSMG4, Rep1) of 3.4 °C and a ΔTm at 10 µM (PSMG4; Rep2, read-out: + Tm shift PSMG4, Rep2) of 3.5 °C. It also gave a ΔTm at 10 µM (NFU1; Rep1, read-out: + Tm shift NFU1, Rep1) of 1.3 °C, a ΔTm at 10 µM (NFU1; Rep2, read-out: + Tm shift NFU1, Rep2) of 1.2 °C and a ΔTm at 10 µM (CYCS; Rep1, read-out: + Tm shift CYCS, Rep1) of 1 °C. It also gave a ΔTm at 10 µM (CYCS; Rep2, read-out: + Tm shift CYCS, Rep2) of 1 °C, a remaining activity at 100 µM (ERK2/MAPK1) of 70.7% and a remaining activity at 100 µM (MST4/STK26) of 14.4%. For the same compound, the remaining activity at 100 µM (ERK1/MAPK3) was 76.7%, the remaining activity at 100 µM (CAMK2d) was 14.7% and the remaining activity at 100 µM (TNIK; 100 μM, n = 3, remaining activity vs DMSO, read-out: Enzyme activity (%) TNIK) was 1.1%. For the same compound, the IC50 (TNIK; 10-dose, threefold serial dilution starting at 100 μM) was less than 500 nM, the remaining activity at 100 µM (CDK7) was 13.2% and the remaining activity at 100 µM (CK2a) was 5.7%. For the same compound, the remaining activity at 100 µM (CK1d) was 0.9%, the remaining activity at 100 µM (CDK2) was 5.3% and the ΔTm at 10 µM (SARS2; read-out: + Tm shift SARS2, Rep1) was 1.2 °C. It also gave a ΔTm at 10 µM (SARS2; read-out: + Tm shift SARS2, Rep2) of 1.3 °C, a Circadian period length (Per2-dLuc U2OS cells) of 28.6 ± 0.1 h and a ΔTm at 10 µM ([2]; Rep1, read-out: + Tm shift CSTF2T, Rep1) of 1.3 °C. The ΔTm at 10 µM ([2]; Rep2, read-out: + Tm shift CSTF2T, Rep2) was 1.8 °C and the “Effect on period length in cyanobacteria” value (Synechococcus elongatus) was “do not affect period length”.
